Laboratory results as given in article PMC3884839, “Pharmacokinetics and pharmacodynamics utilizing unbound target tissue exposure as part of a disposition-based rationale for lead optimization of benzoxaboroles in the treatment of Stage 2 Human African Trypanosomiasis” (Parasitology, 2013).
Like-named read-outs stand apart in the source and are kept apart here.

Columns and labels:
T. brucei = conditions: cited from earlier work
[1] = set-up: method as in Sanderson et al. [2008]; conditions: mice; ref Sanderson et al. [2008]; cited from earlier work
[2] = set-up: method as in Milford et al. [1993]; conditions: human patients; ref Milford et al. [1993]; cited from earlier work
L929 mammalian cell line = assay: L929 mammalian cell cytotoxicity / selectivity; assay type: cell-based; conditions: parasite vs L929
[3] = Binding to human plasma protein by rapid equilibrium dialysis; assay type: in vitro ADME; conditions: 1 μg mL^−1
Description: Binding to plasma proteins, brain homogenates or proteins in serum-fortified HMI-9 media was determined by rapid equilibrium dialysis (RED) (Pierce, Rockford, IL) using a 48-well plate-based format according to the manufacturer's instructions. Briefly, test compound was added to fresh plasma (Bioreclamation, Liverpool, NY) at the required concentrations, freshly prepared brain homogenate or media. Duplicate aliquots of each sample were transferred into the sample chambers of the RED devices, and dialysis buffer (BupH PBS) was added to the buffer chambers. The plates were sealed and incubated at 37 °C for 4 h. After dialysis, samples collected from the buffer and tissue chambers were treated with ice-cold methanol (3 volumes for plasma or HMI-9 media, 4 volumes for brain) to precipitate proteins. The treated samples were centrifuged for 10 min at approximately 3000 g at 15 °C. The supernatants were assayed for test compound by LC-MSMS. Calibration standards and quality control samples were prepared in matched matrix and assayed with samples. Values for unbound and bound fractions and mass balance were calculated. Concordance of binding for each batch of plasma was confirmed by assay of warfarin, imipramine and carbamezapine. Acceptance criterion for mass balance was 70–120%.

[4] = test system: MDCKII-hMDR1 monolayer (Pgp efflux transporter); assay: MDCKII-hMDR1 monolayer permeability and Pgp-mediated efflux; assay type: in vitro ADME; conditions: for Mass balance A–B+GF918 / Mass balance A–B: 3 μM; for Mass balance A–B+GF918: with GF918; for Mass balance A–B: without GF918
Description: (§1) The propensity of test compounds to cross the BBB was examined using an in vitro MDCKII-hMDR1 monolayer assay (Polli et al. [2001]). In summary, MDCKII-hMDR1 cells (Netherlands Cancer Institute, Amsterdam, the Netherlands) were seeded at a density of 3×10^5 cells per well onto microporous polycarbonate membranes in 12 well Costar Transwell plates (Corning Inc., Lowell, MA). The cells were incubated for 3 days during which time they formed confluent monolayers. Trans-epithelial resistance (TEER) was measured for each insert to ensure the integrity of the monolayer (acceptable TEER >160 Ω cm^2). The permeability and susceptibility for Pgp-mediated efflux was evaluated by adding each compound at a concentration of 3 μM, in the presence or absence of 2 μM GF120918 (a potent Pgp inhibitor), to the apical compartment. Competency of the Pgp efflux transporter was confirmed by assay of propranolol (non-substrate) and amprenavir (substrate). Cell monolayers were incubated in triplicate with shaking (160 rpm) at 37 °C in a 5% CO2-enriched humidified atmosphere for 1 h. Samples were removed from the apical and basolateral compartments after incubation and assayed for test compound concentrations by LC-MSMS. Values for mass balance, PappA−B, PappA−B+GF918, and absorption quotient (AQ) were calculated for each compound (Troutman and Thakker, [2003]; Thiel-Demby et al. [2004]). Acceptance criterion for mass balance was 70–120%.

P-gp (human MDR1) = assay: as above; assay type: in vitro ADME; conditions: dog, 3 μM
Description: as §1

[5] = Single oral dose pharmacokinetics and CNS penetration in male CD-1 mice; assay type: in vivo, mouse
Description: The CNS disposition and pharmacokinetics of the benzoxaboroles were evaluated in infected and uninfected mice following oral administration. In vivo phases of single-dose rodent PK studies were performed at Vivisource (Waltham, MA) following Institutional Animal Care and Use Committee (IACUC) review in an Association for Assessment and Accreditation of Laboratory Animal Care International (AAALAC)-approved facility. Studies in Trypanosoma brucei brucei (TREU 667 strain) infected mice, or uninfected satellite animals, were performed after IACUC review at Pace University (NewYork, NY).
Male CD-1 or female Swiss Webster mice (approximately 25 g) were administered test compounds by oral gavage either once (QD) or twice per day (Q12 h) with doses ranging between 6 and 100 mg kg^−1 as described below. All compounds were formulated as an in situ sodium salt in 2% (v/v) ethanol, 5% (m/v) dextrose, to yield typically clear colourless solutions that were administered at 4 mL kg^−1. Blood samples for pharmacokinetic studies were collected into polypropylene tubes containing K2EDTA anticoagulant and stored on wet ice until centrifuged and processed to plasma. Plasma was stored at −80 °C. Blood samples from mice were collected via cardiac puncture under terminal anaesthesia. Rodents were euthanized in a CO2 chamber before collection of terminal blood or tissue samples. Brain tissues were blotted dry and stored at approximately −80 °C.
Plasma (50 μL) was treated with 4 volumes of ice-cold methanol (containing 25 ng mL^−1 of either deuterium (d6)-labelled SCYX-7158 internal standard (SCYX-5232) for SCYX-7158 analyses or a related benzoxaborole for other compounds) to precipitate proteins. Treated samples were gently mixed on a 96-well plate shaker for approximately 10 min then centrifuged at approximately 3000 g and 15 °C for 15 min. Supernatants were transferred to fresh 96-well plates for analysis by means of LC-MSMS. Samples of tissue homogenate (50 μL), or buffer from protein binding studies, were treated similarly to plasma samples.
All biological samples were assayed by a verified LC-MSMS method employing two dimensional chromatographic separation to overcome ion suppression (Annesely, [2003]) caused by co-elution of endogenous components with benzoxaboroles. In summary, treated samples were loaded onto Phenomenex (Torrance, CA) Synergi Polar RP, 4 μ, 50×2 mm extraction columns and subsequently back-eluted onto a Phenomenex Luna C8(2) 3 μ, 50×2 mm analytical columns protected by a Phenomenex C8 guard cartridge. Mobile phases for extraction and analytical columns consisted of 5 mM ammonium formate and 0·1% (v/v) formic acid in water (A), and 5 mM ammonium formate and 0·1% (v/v) formic acid in methanol (B). […]

T. b. brucei (TREU 667) = assay: Murine model of Stage 2 (CNS) HAT; assay type: in vivo, mouse; conditions: oral administration
Description: The efficacy of benzoxaboroles was evaluated in a murine model of Stage 2 (CNS) HAT (Nare et al. [2010]; Jacobs et al. [2011]). In summary, mice (n = 10 per group) were infected by bolus i.p. injection of 1×10^4 T. b. brucei (TREU 667) parasites. A single bolus i.p. dose (10 mg kg^-1) of berenil (Sigma-Aldrich, St. Louis, MO) was administered on day 4 as a positive treatment control for haemolymphatic-stage infection. Infection of the remaining animals proceeded for 21 days to establish a CNS infection before treatment with either a single dose of berenil (as above) or test compounds by the oral route either once or twice daily over 7 days at the doses indicated below. Animals were checked at least weekly for parasitaemia and were immediately removed from cages and euthanized upon recrudescence. Animals were considered cured if they were […] for at least 180 days after treatment.

[6] = cited from earlier work
[7] = intravenous 2·2–3·6 mg kg^−1, uninfected vervet monkeys; ref Burri et al. [1994]; cited from earlier work
[8] = human patients, 24 h after last injection of multi-day regimen; ref Burri and Keiser, [2001]; cited from earlier work
T. b. brucei = assay: Serum-shift assay (effect of foetal calf serum on trypanocidal IC50); assay type: cell-based, Trypanosoma brucei brucei; conditions: 72 h, relative to 2·5% serum
Description: To assess the potential effects of protein binding on trypanocidal activity, parasite viability assays were performed in the presence of increasing concentrations (2·5–50%) of foetal calf serum (Invitrogen, Carlsbad, CA) in HMI-9 media. T. b. brucei parasites were conditioned to the test serum concentrations for at least one round of passage prior to assay. Test compounds were added, incubated for 72 h, signal measured and IC50 determinations were conducted as described above using the resazurin endpoint. The fold change in IC50 from minimal serum concentration to maximal serum concentration was calculated and used to compare compounds and their potential for being restrictively protein bound.

[9] = MDCK-MDR1, with GF120918 2 μM, with 2 μM GF120918, read-out: Papp, A–B direction+GF918
[10] = MDCK-MDR1, read-out: Papp, A–B direction

Structure (SMILES) | Selectivity (L929 mammalian cell line) | Mass balance [3] | P-gp classification [4] | Mass balance A–B+GF918 [4] | Mass balance A–B [4] | Papp A→B at 1 h, 3 μM (P-gp (human MDR1); [9]) | Papp A→B at 1 h, 3 μM (P-gp (human MDR1); [10]) | time CNS (brain) total concentration above MIC [5] | further results
NCCCC(N)(C(=O)O)C(F)F (stereo not shown) [eflornithine] | – | – | – | – | – | – | – | – | in vitro MIC (T. brucei; ref Sanderson et al. [2008]): ca. 50 μM; maximum concentration (CNS exposure) [1]: 10 to 40 nM; CSF level at steady state [2]: 5 to 150 nM
O=C(Nc1ccc2c(c1)B(O)OC2)c1ccc(F)cc1C(F)(F)F [SCYX-6759] | ⩾136 | 97% | Non-substrate | 95% | 89% | 38.6 ×10⁻⁶ cm/s | 37.9 ×10⁻⁶ cm/s | approximately 10 h | cures in the CNS (Stage 2) murine model (T. b. brucei (TREU 667)): 100%
[O-][S+](c1ccc(Cl)cc1)c1ccc2c(c1)B(O)OC2 (stereo not shown) [AN2920] | ⩾49 | 106% | Non-substrate | 99% | 94% | 46.5 ×10⁻⁶ cm/s | 43.8 ×10⁻⁶ cm/s | 1 h | time plasma concentration maintained above MIC ([5]; total concentration): approximately 7 h
Nc1nc(N)nc(Nc2ccc([As]3SCC(CO)S3)cc2)n1 (stereo not shown) [melarsoprol] | – | – | – | – | – | – | – | – | in vitro MIC (T. brucei; ref Burri et al. [1994]): 2 to 100 ng/mL; drug-induced death, patients ([6]; Stage 2 HAT patients, ref Schmid et al. [2004], Doua et al. [2005], Kuepfer et al. [2012]): 2–10%; failure rate with treatment ([6]; ref Legros et al. [1999]): 3–30%; maximum concentration in CSF [7]: ~50 ng/mL; CSF concentration [8]: 39 to 79 ng/mL
O=C(Nc1ccc2c(c1)B(O)OC2)c1ccccc1C(F)(F)F [AN3520] | ⩾94 | 110% | Non-substrate | 90% | 92% | 43.4 ×10⁻⁶ cm/s | 42.4 ×10⁻⁶ cm/s | – | –
Cc1ccc(C(=O)Nc2ccc(S(=O)(=O)O)c3cc(S(=O)(=O)O)cc(S(=O)(=O)O)c23)cc1NC(=O)c1cccc(NC(=O)Nc2cccc(C(=O)Nc3cc(C(=O)Nc4ccc(S(=O)(=O)O)c5cc(S(=O)(=O)O)cc(S(=O)(=O)O)c45)ccc3C)c2)c1 [suramin] | – | – | – | – | – | – | – | – | fold change in IC50 between 2·5 and 50% calf serum (T. b. brucei): 26 fold
